From patent US12091411B2, “IRAK degraders and uses thereof” (Kymera Therapeutics, Inc., priority 2022, dated 2024)
Like-named read-outs stand apart in the source and are kept apart here.

Target: T1, IRAK4 (Homo sapiens, UniProt Q9NWZ3)
T1 construct: Degradation of IRAK4 in OCI-LY10 was quantitatively measured using Meso Scale Discovery technology; endogenous in cells; host or cells: OCI-LY10
T1 sequence (Q9NWZ3 1-460): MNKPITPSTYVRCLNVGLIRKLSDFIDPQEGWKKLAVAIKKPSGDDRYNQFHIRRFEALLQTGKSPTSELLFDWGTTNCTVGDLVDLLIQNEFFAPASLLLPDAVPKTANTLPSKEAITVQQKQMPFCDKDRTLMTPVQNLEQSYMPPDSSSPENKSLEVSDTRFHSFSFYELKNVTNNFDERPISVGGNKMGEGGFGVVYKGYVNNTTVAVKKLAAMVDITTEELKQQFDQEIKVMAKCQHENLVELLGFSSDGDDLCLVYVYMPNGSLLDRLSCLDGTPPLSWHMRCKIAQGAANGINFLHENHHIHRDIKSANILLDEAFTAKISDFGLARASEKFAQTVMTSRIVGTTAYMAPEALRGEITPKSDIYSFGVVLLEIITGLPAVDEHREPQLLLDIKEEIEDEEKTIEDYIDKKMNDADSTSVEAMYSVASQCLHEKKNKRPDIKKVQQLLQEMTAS
Assay: IRAK4 MSD Degradation in OCI-LY10
Assay type: cell-based
Conditions: OCI-LY10 cells, MSD
Summary of the method: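 OCI-LY10 cells exposed to 8-point 1:3 compound series (top 1 to 10 μM) for 4 to 24 h at 37 °C, 5% CO2. Lysate IRAK4 quantified by MSD sandwich immunoassay. DC50 from three-parameter logistic fit, binned A (<0.01 μM) to D (>0.2 μM or not tested).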

[1] = 4 hrs incubation, read-out: IRAK4 degradation in OCI-LY10 at 4 hrs: DC50
[2] = 24 hrs incubation, read-out: IRAK4 degradation in OCI-LY10 at 24 hrs: DC50

SMILES	DC50 [1]	DC50 [2]
Cn1c(=O)n(C2CCC(=O)NC2=O)c2cccc(C3CN([C@@H]4CCN(C[C@H]5CC[C@H](n6cc(NC(=O)c7cnn8ccc(N9C[C@H]%10C[C@@H]9CO%10)nc78)c(C(F)F)n6)CC5)C[C@@H]4F)C3)c21 (some centres unmarked) [I-673]	> 200 nM	< 10 nM
C[C@H]1CN(c2ccn3ncc(C(=O)Nc4cn([C@H]5CC[C@H](CN6CCN(CC7CN(c8cccc9c8n(C)c(=O)n9C8CCC(=O)NC8=O)C7)CC6)CC5)nc4C(F)F)c3n2)CCO1 (some centres unmarked) [I-674]	> 200 nM	< 10 nM
COc1ccc2c(c1N1CC(CN3CCN(C[C@H]4CC[C@H](n5cc(NC(=O)c6cnn7ccc(N8C[C@H]9C[C@@H]8CO9)nc67)c(C(F)F)n5)CC4)CC3)C1)n(C)c(=O)n2C1CCC(=O)NC1=O (some centres unmarked) [I-675]	> 200 nM	< 10 nM
Cn1c(=O)n(C2CCC(=O)NC2=O)c2ccc(F)c(N3CC(CN4CCN(C[C@H]5CC[C@H](n6cc(NC(=O)c7cnn8ccc(N9C[C@H]%10C[C@@H]9CO%10)nc78)c(C(F)F)n6)CC5)CC4)C3)c21 (some centres unmarked) [I-676]	> 200 nM	< 10 nM
Cn1c(=O)n(C2CCC(=O)NC2=O)c2cccc(N3CCN(C[C@]4(O)CC[C@@H](n5cc6cc(NC(=O)c7cccc(C(F)(F)F)n7)ncc6n5)CC4)CC3)c21 (some centres unmarked) [I-677]	> 200 nM	< 10 nM
Cn1c(=O)n(C2CCC(=O)NC2=O)c2cccc(N3CC(F)(CN4CCN(C[C@H]5CC[C@H](n6cc(NC(=O)c7cnn8ccc(N9C[C@H]%10C[C@@H]9CO%10)nc78)c(C(F)F)n6)CC5)CC4)C3)c21 (some centres unmarked) [I-678]	> 200 nM	< 10 nM
Cn1c(=O)n(C2CCC(=O)NC2=O)c2cccc(N3CCN([C@@H]4CCN(C[C@H]5CC[C@H](n6cc(NC(=O)c7cnn8ccc(N9C[C@H]%10C[C@@H]9CO%10)nc78)c(C(F)F)n6)CC5)C[C@@H]4F)CC3)c21 (some centres unmarked) [I-679]	> 200 nM	< 10 nM
C[C@@H]1CN(c2ccn3ncc(C(=O)Nc4cn([C@H]5CC[C@H](CN6CCN(CC7CN(c8cccc9c8n(C)c(=O)n9C8CCC(=O)NC8=O)C7)CC6)CC5)nc4C(F)F)c3n2)CCO1 (some centres unmarked) [I-680]	> 200 nM	< 10 nM
Cn1c(=O)n(C2CCC(=O)NC2=O)c2cccc(C3CN([C@@H]4CCN(C[C@H]5CC[C@H](n6cc(NC(=O)c7cnn8ccc(N9C[C@H]%10C[C@@H]9CO%10)nc78)c(C(F)F)n6)CC5)C[C@H]4F)C3)c21 (some centres unmarked) [I-681]	> 200 nM	< 10 nM
Cn1c(=O)n(C2CCC(=O)NC2=O)c2cccc(C3CN(C4CCN(C[C@H]5CC[C@H](n6cc(NC(=O)c7cnn8ccc(N9C[C@H]%10C[C@@H]9CO%10)nc78)c(C(F)F)n6)CC5)CC4(F)F)C3)c21 (some centres unmarked) [I-682]	> 200 nM	< 10 nM
Cn1c(=O)n(C2CCC(=O)NC2=O)c2cccc(N3CCN([C@@H]4CCN(C[C@H]5CC[C@H](n6cc(NC(=O)c7cnn8ccc(N9C[C@H]%10C[C@@H]9CO%10)nc78)c(C(F)F)n6)CC5)C[C@H]4F)CC3)c21 (some centres unmarked) [I-683]	> 200 nM	< 10 nM
Cn1c(=O)n(C2CCC(=O)NC2=O)c2cccc(N3CCN(C[C@]4(O)CC[C@@H](n5cc6cc(NC(=O)c7cccc(C(F)(F)F)n7)ccc6n5)CC4)CC3)c21 (some centres unmarked) [I-684]	> 200 nM	< 10 nM
Cn1c(=O)n(C2CCC(=O)NC2=O)c2cccc(N3CCN(C[C@H]4CC[C@H](n5cc6cc(NC(=O)c7cccc(C#N)n7)ccc6n5)CC4)CC3)c21 (some centres unmarked) [I-685]	> 200 nM	< 10 nM
Cn1c(=O)n(C2CCC(=O)NC2=O)c2ccc(F)c(N3CCN(C[C@H]4CC[C@H](n5cc6cc(NC(=O)c7cccc(C#N)n7)ccc6n5)CC4)CC3)c21 (some centres unmarked) [I-686]	> 200 nM	10 to 100 nM
COc1ccc2c(c1N1CCN(CC3CCC(n4cc5cc(NC(=O)c6cccc(C#N)n6)ccc5n4)CC3)CC1)n(C)c(=O)n2C1CCC(=O)NC1=O (centres unmarked) [I-687]	> 200 nM	< 10 nM
Cn1c(=O)n(C2CCC(=O)NC2=O)c2cccc(C3COC4(C3)CN(C[C@H]3CC[C@H](n5cc6cc(NC(=O)c7cccc(C(F)(F)F)n7)ncc6n5)CC3)C4)c21 (some centres unmarked) [I-688]	> 200 nM	< 10 nM
